Measurements: patent US12570694B2, “Peptides and pharmaceutical, nutraceutical or veterinary compositions for hair loss prevention and/or treatment” (VYTRUS BIOTECH, S.L., priority 2016, dated 2026)
Non-standard residues stand in square brackets, D forms with d. sY = N[C@@H](Cc1ccc(OS(=O)(=O)O)cc1)C(=O)O

Legend:
Assay type in all cases: cell-based
[1] = tested on: human dermal fibroblasts (HDF); assay: Wound healing (scratch) assay on human dermal fibroblasts; conditions: FIG. 17; 5 μg/ml and 0.05 μg/ml; 5 days of treatment; triplicate mean; vs 0.1% FBS basal, 10% FBS and TGF-β1 positive controls
Protocol: In order to test the effect of the sulfaction state of the peptides on their activity, it is herewith provided as reference example a wound healing assay conducted onto human dermal fibroblasts (HDF).
Human dermal fibroblasts were seeded in a 24-well plate and were grown to confluence. A 2 mm width scratch was done on the culture monolayer. Then the test products in culture medium were added and the cicatrisation process was followed by means of phase contrast microscopy. With this aim, photographs were taken at initial of the test (T=0 h) before the scratching and after the treatment (at 12 h and at 72 h). Cicatrisation process was evaluated by quantifying wound area reduction at each time.
Data at the end of the test (5 days of treatment) are depicted in FIG. 17, wherein the wound healing potential is depicted as the Healed Area (in μm^2) for assayed peptide.
The results derive from a triplicate test. Values of cicatrised area (or % of cicatrisation) are the mean values.

[2] = tested on: human hair follicle papilla cells (HFDPC); assay: In vitro proliferation of hair follicle dermal papilla cells (BrdU incorporation); conditions: FIGS. 2 and 3; peptides with or without end-terminal modifications at 5.86, 2.93, 1.46 μg/ml; basal control = 100%
Protocol: In order to test the effects of the cell-free supernatants, as well as of the peptides of the invention, a proliferation assay was conducted onto human hair follicle papilla cells (CELL APPLICATIONS, INC; Normal human hair follicles from temporal scalp. Single donor: Ref. 602-05a. Lot. 2092.).
The culture media was a Papilla Cell Basal Medium supplemented with the Growth Supplements kit (Relative composition: Fetal bovine serum, growth factors and antibiotics. Application: 6% v/v).
HFDPC proliferation was assessed determining the proliferation index (%). Cell DNA replication was quantified by means of incorporated bromodeoxiuridine (BrdU) into DNA of treated cells. BrdU assay allows measuring cell proliferation based on cell capability of incorporating BrdU during S-phase of the cell cycle. Cells being divided incorporated BrdU that is further detected by means of antibodies and immunocytochemistry detection.
Cells were seeded at confluence in a 96-well plate. After stabilization and synchronization of cell cultures the tested products were added (at the final concentration indicated in Table 1 of Examples. After that, BrdU was added to cultures and HFDPC were incubated at 37° C. until complete BrdU incorporation. BrdU amounts were proportional to the number of cell divisions and thus to the growth of the treated culture.
Data are depicted in FIG. 1, FIG. 2 and FIG. 3, wherein it is shown the proliferation index (%) of HFDPC, calculated as the percentage of growing in relation to the basal control (non-treated HFDPC) which is accorded a 100% value of proliferation index.

[3] = tested on: human dermal fibroblasts (HDF); assay: In vitro proliferation of human dermal fibroblasts (BrdU incorporation); conditions: FIGS. 6 and 7; 4Aa at 25, 12.5, 1.25 μg/ml, 5Aa at 1.25, 0.63, 0.25 μg/ml; basal control = 100%
Protocol: In order to further test the effects of the peptides of the invention in an additional setting, a proliferation assay was conducted onto human dermal fibroblasts (HDF).
Normal Human Dermal Fibroblasts (HDF) were obtained from foreskin samples, surpluses from surgery of young donors (0-3 years old) and stablished by using the standard method of explants growth and enzymic dissociation of proliferating cells. Cells were propagated and grown in Growth Medium (GM): Dulbecco's 1 g/L glucose medium, supplemented with 10% foetal bovine serum (FBS, PAA); 2 mM L-glutamine (Lonza); and antibiotics (100 μg/ml Penicillin and 100 U/ml of Streptomycin, Lonza). For routine subcultivation and propagation of the primary culture, cells were washed twice with PBS ([…] buffered saline, pH 7.4), harvested with trypsin—EDTA (Gibco) and counted in Neubauer chamber before its seeding in a new cell culture flask (Falcon, 75 cm2).
Test products were prepared at the defined final concentrations by its dilution in Maintenance Medium (Dulbecco's 1 g/L glucose medium, supplemented with 1% foetal bovine serum (FBS, PAA); 2 mM L-glutamine (Lonza); and antibiotics (100 μg/ml Penicillin and 100 U/ml of Streptomycin, Lonza), just before each application.
HFD proliferation was assessed determining the proliferation index (%). Cell DNA replication was quantified by means of incorporated bromodeoxiuridine (BrdU) into DNA of treated cells. […] Cells being divided incorporated BrdU that is further detected by means of antibodies and immunocytochemistry detection. […]
Data are depicted in FIG. 6 and FIG. 7, wherein it is shown the proliferation index (%) of HDF, calculated as the percentage of growing in relation to the basal control (non-treated HDF) which is accorded a 100% value of proliferation index. […]
Data are depicted in FIG. 16, wherein it is shown the proliferation index (%) of HDF, calculated as the percentage of growing in relation to the basal control (non-treated HDF) which is accorded a 100% value of proliferation index.

With “CH3—C(O)—Xaa1IYT-NH2 (Ac-[sY]IYT-NH2; SMILES CC[C@H](C)[C@H](NC(=O)[C@H](Cc1ccc(OS(=O)(=O)O)cc1)NC(C)=O)C(=O)N[C@@H](Cc1ccc(O)cc1)C(=O)N[C@H](C(N)=O)[C@@H](C)O) [SEQ ID NO: 2, Xaa1 is a tyrosine residue with the side-chain hydroxyl group replaced by a radical —OSO3H]” the “wound healing potential, Healed Area” value [1] was “have the same activity as the 4Aa non-sulfated peptide”.

“CH3—C(O)—YIXaa2T-NH2 (Ac-YI[sY]T-NH2; SMILES CC[C@H](C)[C@H](NC(=O)[C@H](Cc1ccc(O)cc1)NC(C)=O)C(=O)N[C@@H](Cc1ccc(OS(=O)(=O)O)cc1)C(=O)N[C@H](C(N)=O)[C@@H](C)O) [SEQ ID NO: 3, Xaa2 is a tyrosine residue with the side-chain hydroxyl group replaced by a radical —OSO3H]” was tested, and the “wound healing potential, Healed Area” value [1] was “have the same activity as the 4Aa non-sulfated peptide”.

In the case of “CH3—C(O)—YIYTQ-NH2 (Ac-YIYTQ-NH2) [SEQ ID NO: 7]”, the “proliferation index of HFDPC” value [2] is reported as “can promote cell proliferation” and the “proliferation index of HDF” value [3] is reported as “can promote cell proliferation of HDF”.
